Data: patent publication US20070218456A1, “CELLULAR ASSAYS FOR SIGNALING RECEPTORS” (INVITROGEN CORPORATION, priority 2006, published 2007)

Tested on: T-REx™-GPR23-CRE-bla-CHO-K1 clone H6-E2
Test: T-REx-GPR23-CRE-bla-CHO-K1 clone H6-E2 beta-lactamase reporter assay (induction)
Assay type: cell-based, Chinese hamster
Conditions: for EC50: Cricetulus griseus
Description: Six clones selected for further testing were expanded and retested for their inducible GPR23 specific activity. The clones were plated at 25,000 cells per well in a 96 well black walled clear bottom tissue culture assay plate. The plates were than placed at 37° C. 5% CO2 for 24 hrs to allow the cells to attach to the assay plate. The complete media was then removed from the plate and replaced with assay media (DMEM+0.1% BSA) containing 100 ng/ml pertussis toxin with or without 1 μg/ml tetracycline. The plates were placed at 37° C. 5% CO2 for 16 hrs to allow the induced expression of the GPR23 receptor. The cells were then loaded with LiveBLAzer™-FRET B/G substrate (2 μM) containing solution D for 2 hrs. To determine the optimal cell density for this assay the cells were plated at 2,500, 5,000, 10,000, and 20,000 cells per well in a 384 well black walled clear bottom tissue culture assay plate in complete media (DMEM+10% FBS). The plates were than placed at 37° C. 5% CO2 for 24 hrs to allow the cells to attach to the assay plate. The complete media was then removed from the plate and replaced with assay media (DMEM+0.1% BSA) containing 100 ng/ml pertussis toxin and a four fold dilution series of doxycycline starting at 1 μg/ml. The plates were placed at 37° C./5% CO2 for 16 hrs to allow the induced expression of the GPR23 receptor. The cells were then loaded with LiveBLAzer™-FRET B/G substrate (2 μM) containing solution D for 2 hrs. The cells were plated at 20,000 cells per well in a 384 well black walled clear bottom tissue culture assay plate in complete media (DMEM+10% FBS). The plates were then placed at 37° C. 5% CO2 for 6 hrs to allow the cells to attach to the assay plate. The complete media was then removed from the plate and replaced with assay media (DMEM+0.1% BSA) containing 100 ng/ml pertussis toxin, 0%, 0.25%, 0.5%, or 1.0% DMSO, and a three fold dilution series of doxycycline starting at 1 μg/ml. The plates were placed at 37° C./5% CO2 for 16 hrs to allow the induced expression of the GPR23 receptor. The cells were then loaded with LiveBLAzer™-FRET B/G substrate (2 μM) containing solution D for 2 hrs. The cells were plated at 20,000 cells per well in a 384 well black walled clear bottom tissue culture assay plate in complete media (DMEM+10% FBS). The plates were than placed at 37° C. 5% CO2 for 6 hrs to allow the cells to attach to the assay plate. The complete media was then removed from the plate and replaced with assay media (DMEM+0.1% BSA) containing 100 ng/ml pertussis toxin, 0.5% DMSO, and a three fold dilution series of doxycycline starting at 1 μg/ml. The plates were placed at 37° C. 5% CO2 for 16, 20 or 24 hrs to allow the induced expression of the GPR23 receptor. The cells were then loaded with LiveBLAzer™-FRET B/G substrate (2 μM) containing solution D for 2 hrs. Dose response of T-REx-GPR23-CRE-bla CHO-K1 cells to Doxycycline. T-REx-GPR23-CRE-bla CHO-K1 cells were plated in Growth Media (+) and allowed to attach to the tissue culture plate for 6 hrs. They were then induced for GPR23 expression overnight with doxycycline for 16 hrs in Assay Media. Cells were then loaded with LiveBLAzer™-FRET B/G Substrate (CCF4-AM) for 2 hours. Fluorescence emission values at 460 nm and 530 nm were obtained using a standard florescence plate reader and the Blue/Green Emission Ratios were plotted against the indicated concentrations of doxycycline (FIG. 40).

C[C@H]1c2cccc(O)c2C(=O)C2=C(O)[C@]3(O)C(=O)C(C(N)=O)=C(O)[C@@H](N(C)C)[C@@H]3[C@@H](O)[C@@H]21 [Doxycycline]
maximum response ratio (20,000 cells per well): 5.7 fold
EC50 (16 h, 0% DMSO, 20,000 cells per well): 3.3 ng/mL
EC50 (16 h, 0.25% DMSO, 20,000 cells per well): 4 ng/mL
EC50 (16 h, 0.5% DMSO, 20,000 cells per well): 4 ng/mL
EC50 (16 h, 1.0% DMSO, 20,000 cells per well): 5.1 ng/mL
EC50 (16 h, 2,500 cells/well, 16 hrs induction): 1.3 ng/mL
EC50 (16 h, 5,000 cells/well, 16 hrs induction): 1 ng/mL
EC50 (16 h, 10,000 cells/well, 16 hrs induction): 1.6 ng/mL
EC50 (16 h, 20,000 cells/well, 16 hrs induction): 2 ng/mL
EC50 (16 h, 16 hours induction, 0.5% DMSO): 4 ng/mL
EC50 (20 h, 20 hours induction, 0.5% DMSO): 1.9 ng/mL
EC50 (24 h, 24 hours induction, 0.5% DMSO): 2 ng/mL
EC50 (representative data, 16 hrs induction, 2 hours loading): 1.7 nM
